Consider five compounds from paper PMC3828642 (AoB Plants, 2013).

Holding throughout (assay type): biochemical
Test [1] deals with T1, 1-aminocyclopropane-1-carboxylic acid oxidase (ACCO1) (Malus domestica, UniProt Q00985). Description: steady-state kinetics, ethylene assay by GC, double reciprocal plot; UV/Vis spectrum. The arrangement: His-Tag fusion protein expressed in E. coli.
The target in test [2] is T1, 1-aminocyclopropane-1-carboxylic acid oxidase (ACCO1). Description: steady-state kinetics (data not shown).
For test [3] the target is unchanged. Description: steady-state kinetics, competitive activation (Ka), double reciprocal plot. The arrangement: purified recombinant ACCO.
The target is the same in test [4]. Description: steady-state kinetics, ethylene assay by GC. The arrangement: purified ACCO fusion protein.

Each structure is given as a SMILES string.

T1 sequence (Q00985 whole entry, the tested form may be a part): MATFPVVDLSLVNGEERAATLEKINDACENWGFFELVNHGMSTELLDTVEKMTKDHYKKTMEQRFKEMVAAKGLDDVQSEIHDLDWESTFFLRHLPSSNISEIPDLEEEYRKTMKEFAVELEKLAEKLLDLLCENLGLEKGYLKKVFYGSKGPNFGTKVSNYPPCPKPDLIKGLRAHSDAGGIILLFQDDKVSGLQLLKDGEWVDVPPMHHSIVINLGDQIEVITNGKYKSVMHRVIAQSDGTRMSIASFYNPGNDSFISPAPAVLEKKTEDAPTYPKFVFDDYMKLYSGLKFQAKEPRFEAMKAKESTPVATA

Take `Cc1ncc(COP(=O)(O)O)c(C=O)c1O` [Pyridoxal-5′-phosphate]: the affinity in test [1], expressed as Ki, was 200 µM.

On to `O=C(O)CC(=O)C(=O)O` [Oxaloacetic acid], for which the inhibitory constant (Ki) (commonly the equilibrium dissociation constant of an inhibitor or competing ligand from its target) in test [2] came out at 930 µM.

For `O=c1[nH]c(=O)c2nccnc2[nH]1` [2,4-pteridinediol], the “steady-state kinetics, competitive activation (Ka), double reciprocal plot” value in test [3] worked out at 2.2 mM.

Compound `O=C(O)CC(=O)O` [Malonic acid] registered an inhibition constant (Ki) in test [2] of 70 µM.

Turning to `O=C(O)[C@@H](O)[C@H]1OC(=O)[C@H](O)[C@H]1O` [D-Saccharic acid 1,4-lactone], in test [4], affinity was put at a Ki of 300 µM.
